From PMC6270420, “Antibacterial Activity of Salicylanilide 4-(Trifluoromethyl)benzoates” (Molecules, 2013)
Converted amounts (≈) assume the structure as drawn. Like-named read-outs stand apart in the source and are kept apart here.

Experiments:
[1] = test system: Gram-positive cocci including MRSA; assay: Antibacterial microdilution, summary for Gram-positive cocci; type: cell-based; conditions: Staphylococcus aureus, read-out: MICs against Gram-positive cocci
Experimental: (§1) The in vitro antibacterial activity was assayed against eight Gram-positive and Gram-negative strains: Staphylococcus aureus CCM 4516/08, methicillin-resistant Staphylococcus aureus H 5996/08 (MRSA), Staphylococcus epidermidis H 6966/08, Enterococcus sp. J 14365/08; Escherichia coli CCM 4517, Klebsiella pneumoniae D 11750/08, ESBL-positive Klebsiella pneumoniae J 14368/08, and Pseudomonas aeruginosa CCM 1961.
(§2) The microdilution broth method modified according to standard M07-A07 in Mueller-Hinton broth (HiMedia Laboratories, Mumbai, India) adjusted to pH 7.4 (±0.2) was used. The tested compounds were dissolved in DMSO to the final concentrations ranging from […]. Benzylpenicillin (penicillin G) was used as a comparative drug. Bacterial inoculum in sterile water was prepared to match 0.5 McFarland scale ([…]). The minimum inhibitory concentrations were assayed as 90% (IC90) or higher reduction of growth when compared to the control. The determination of results was performed visually and spectrophotometrically (at 540 nm). The values of MICs were determined after 24 and 48 h of incubation in the darkness at 35 °C (±0.1) in a humid atmosphere.

[2] = target: T1, mycobacterial isocitrate lyase (ICL1, Rv0467) (Mycobacterium tuberculosis, UniProt P9WKK7); assay: Isocitrate lyase inhibition assay (ICL1); type: biochemical, Mycobacterium tuberculosis H37Rv; conditions: 10 μmol/L; read-out: % ICL inhibition at 10 μmol/L (± standard deviation)
T1 construct: His tag (from pET-28b(+)); made in house; host or cells: E. coli BL21(DE3), pET-28b(+) plasmid
T1 sequence (P9WKK7 1-428): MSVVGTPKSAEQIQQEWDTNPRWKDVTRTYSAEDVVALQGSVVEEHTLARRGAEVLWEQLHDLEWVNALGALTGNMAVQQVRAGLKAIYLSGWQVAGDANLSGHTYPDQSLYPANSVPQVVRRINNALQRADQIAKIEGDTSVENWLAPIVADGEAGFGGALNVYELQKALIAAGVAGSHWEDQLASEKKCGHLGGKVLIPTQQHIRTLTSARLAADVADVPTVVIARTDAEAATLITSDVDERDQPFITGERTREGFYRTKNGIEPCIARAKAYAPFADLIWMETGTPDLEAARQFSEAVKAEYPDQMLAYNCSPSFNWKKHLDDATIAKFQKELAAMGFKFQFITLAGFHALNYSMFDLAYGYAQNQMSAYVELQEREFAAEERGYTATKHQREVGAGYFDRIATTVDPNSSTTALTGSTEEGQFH

[3] = test system: Mycobacterium avium 330/88; assay: Antimycobacterial MIC micromethod; type: cell-based
[4] = test system: M. kansasii 6509/96 (clinically isolated strain); assay: Antimycobacterial MIC micromethod; type: cell-based; conditions: Mycobacterium kansasii, read-out: MIC M. kansasii 6509/96
[5] = test system: Mycobacterium tuberculosis 331/88 (H37Rv); assay: Antimycobacterial MIC micromethod, Šula's medium; type: cell-based; conditions: read-out: MIC Mtb. 331/88
[6] = test system: Mycobacterium kansasii 235/80; assay: Antimycobacterial MIC micromethod; type: cell-based; conditions: read-out: MIC M. kansasii 235/80
[7] = test system: Staphylococcus epidermidis H 6966/08; assay: Antibacterial microdilution broth method; type: cell-based; conditions: read-out: MIC/IC90 S. epidermidis H 6966/08
Experimental: as §1, §2

[8] = test system: Staphylococcus aureus CCM 4516/08; assay: Antibacterial microdilution broth method; type: cell-based; conditions: read-out: MIC/IC90 S. aureus CCM 4516/08
Experimental: as §1, §2

[9] = test system: Enterococcus sp. J 14365/08; assay: Antibacterial microdilution broth method; type: cell-based; conditions: read-out: MIC/IC90 Enterococcus sp. J 14365/08
Experimental: as §1, §2

[10] = test system: Escherichia coli CCM 4517; assay: Antibacterial microdilution broth method; type: cell-based; conditions: read-out: MIC/IC90 E. coli CCM 4517
Experimental: as §1, §2

[11] = test system: methicillin-resistant Staphylococcus aureus H 5996/08 (MRSA); assay: Antibacterial microdilution broth method; type: cell-based; conditions: read-out: MIC/IC90 MRSA H 5996/08
Experimental: as §1, §2

HepG2 cells = assay: Cytotoxicity evaluation (CellTiter 96 MTS); type: cell-based, human; conditions: 24 h, cytotoxicity; read-out: IC50 HepG2
Experimental: Seven esters and their parent salicylanilides with the most robust antimicrobial activity were tested for cytotoxicity in the human hepatocellular liver carcinoma cell line HepG2 (passages 21–24; ECACC, Salisbury, UK) using a standard colorimetric method measuring a tetrazolium salt reduction (CellTiter(R) 96 AQueous One Solution Assay, Promega G3580, Madison, WI, USA).
The cells were routinely cultured in Minimum Essentials Eagle Medium (Sigma-Aldrich, Darmstadt, Germany) supplemented with 10% foetal bovine serum (PAA; Biotech, Prague, Czech Republic), 1% of L-glutamine solution (Sigma-Aldrich), and non-essential amino acids solution (Sigma-Aldrich) in a humidified atmosphere containing 5% CO2 at 37 °C. For subculturing, the cells were harvested after trypsin/EDTA (Sigma-Aldrich) treatment at 37 °C. The cells treated with the tested substances were used as experimental groups. Untreated HepG2 cells were used as control groups.
The cells were seeded in density 1 × 10^4 cells per well in a 96-well plate with microscopic control. Next day, the cells were treated with each of the tested substances. […] The most of the tested compounds were prepared in incubation concentrations of 0.01–20 µM in triplicates. 4-(Trifluoromethyl)benzoic acid was applied in the concentrations of 10–4,000 µM in triplicates. The following types of controls were included: determination of 100% viability and 0% viability (the cells treated by 10% DMSO), no cell control and vehiculum controls. These checking samples were prepared in triplicates.
The treated cells were incubated together with controls at 37 °C for 24 h in 5% CO2 atmosphere. After this time reagent from the kit CellTiter 96 AQueous One Solution Cell Proliferation Assay was added. The CellTiter 96 assay is based on the reduction of tetrazolium salt MTS [3-(4,5-dimethylthiazol-2-yl)-5-(3-carboxymethoxyphenyl)-2-(4-sulfophenyl)-2H-tetrazolium] to water-soluble formazan dye by metabolically active cells. The reduction of the reagent is attributed to availability of NADH or NADPH. The decline in levels of these metabolically important compounds in the cell causes that the production of formazan is reduced. The tested plate was incubated for 2 h at 37 °C and 5% CO2 and after this time, the absorbance was recorded at 490 nm using a 96-well plate reader (TECAN, Infinite M200, Grödig, Austria).
The results were expressed as inhibitory concentration which is necessary to inhibit cell viability to 50% from the maximal (control) viability (IC50). A standard toxicological parameter IC50 was calculated in each of the tested substances using GraphPad Prism software (version 5.02; GraphPad Software Inc., San Diego, CA, USA).

Row | SMILES | inhibition at 10 µM [2] | MIC ([3]; 330/88, 336 h, 14 d) | MIC ([3]; 330/88, 504 h, 21 d) | MIC ([4]; 168 h, 7 d) | MIC ([4]; 336 h, 14 d) | MIC ([4]; 504 h, 21 d) | MIC ([5]; 336 h, 14 d) | MIC ([5]; 504 h, 21 d) | MIC ([6]; 235/80, 168 h, 7 d) | MIC ([6]; 235/80, 336 h, 14 d) | MIC ([6]; 235/80, 504 h, 21 d) | MIC ([7]; H6966/08, 24 h) | MIC ([7]; H6966/08, 48 h) | MIC ([8]; CCM4516, 24 h) | MIC ([8]; CCM4516, 48 h) | MIC ([9]; SP.J14365/08, 24 h) | MIC ([9]; SP.J14365/08, 48 h) | MIC ([10]; CCM4517, 24 h) | MIC ([10]; CCM4517, 48 h) | MIC ([11]; 24 h) | further results
1 | O=C(Oc1cc(Cl)ccc1C(=O)Nc1cccc(Br)c1)c1ccc(C(F)(F)F)cc1 [1h] | ≥ 20% | 8 µM (≈ 3.99 µg/mL) | 16 µM (≈ 7.98 µg/mL) | 2 µM (≈ 0.997 µg/mL) | 8 µM (≈ 3.99 µg/mL) | 8 µM (≈ 3.99 µg/mL) | 4 µM (≈ 1.99 µg/mL) | 8 µM (≈ 3.99 µg/mL) | 4 µM (≈ 1.99 µg/mL) | 8 µM (≈ 3.99 µg/mL) | 8 µM (≈ 3.99 µg/mL) | 0.49 µM (≈ 0.244 µg/mL) | 0.98 µM (≈ 0.489 µg/mL) | 0.98 µM (≈ 0.489 µg/mL) | 0.98 µM (≈ 0.489 µg/mL) | 31.2 µM (≈ 15.6 µg/mL) | 250 µM (≈ 125 µg/mL) | > 500 µM | > 500 µM | 0.49 µM (≈ 0.244 µg/mL) | MIC [1]: < 1 µM; MIC ([11]; 48 h): 0.98 µM (≈ 0.489 µg/mL)
2 | O=C(Oc1ccc(Cl)cc1C(=O)Nc1ccc(F)cc1)c1ccc(C(F)(F)F)cc1 [1m] | ≥ 20% | 16 µM (≈ 7 µg/mL) | 32 µM (≈ 14 µg/mL) | 8 µM (≈ 3.5 µg/mL) | 16 µM (≈ 7 µg/mL) | 16 µM (≈ 7 µg/mL) | 8 µM (≈ 3.5 µg/mL) | 8 µM (≈ 3.5 µg/mL) | 4 µM (≈ 1.75 µg/mL) | 16 µM (≈ 7 µg/mL) | 16 µM (≈ 7 µg/mL) | 31.2 µM (≈ 13.7 µg/mL) | > 500 µM | 7.81 µM (≈ 3.42 µg/mL) | 7.81 µM (≈ 3.42 µg/mL) | 500 µM (≈ 219 µg/mL) | > 500 µM | > 500 µM | > 500 µM | 15.6 µM (≈ 6.84 µg/mL) | MIC ([11]; 48 h): 15.6 µM (≈ 6.84 µg/mL)
3 | O=C(Nc1ccc(Cl)c(Cl)c1)c1cc(Cl)ccc1O [SAL-1] | – | – | – | – | – | – | – | – | – | – | – | – | – | – | – | – | – | – | – | – | IC50 (HepG2 cells): 840 nM
